In US9409898B2, “Substituted pyrazole compounds as CRAC modulators” (LUPIN LIMITED, priority 2012, dated 2016):
pIC50: −log10 of the molar value.

Test system: IL-2 secretion
Experiment: Inhibition of IL-2 secretion in PHA-stimulated Jurkat T cells (ELISA)
Format: cell-based
Conditions: Homo sapiens, PHA stimulation, 20 to 24 hours, IL-2 by ELISA
Description: The CRAC channel modulatory activity of the compounds were thus evaluated by measuring the secretion of IL-2 by antigen stimulated T-cells in vitro. Alternatively, such activity can also be evaluated by assay methods known to one skilled in the art.
Inhibition of IL-2 secretion: Jurkat T cells were seeded at a density of 0.5 to 1 million cells per well in RPMI medium. Test compounds from this invention were added to the cells at different concentrations. This was followed by the addition of PHA, a T cell mitogen after 10 minutes. The cells were then incubated for 20 to 24 hours in a CO2 incubator at 37° C. After incubation with the compounds, cells were centrifuged, the supernatant was collected and processed for ELISA to quantitate the amount of IL-2 secreted. A commercial ELISA kit (R&D Systems, Inc. Minneapolis, Minn., USA) was used to estimate the IL-2 concentrations. Amount of IL-2 secreted by cells stimulated with PHA was considered as a 100% maximal signal and the decrease in amount of IL-2 secreted by cells treated with the test compounds was expressed as percent inhibition of the maximal signal. The dose response data was analyzed using 4-parametric sigmoidal dose response (variable slope) curve—fit.

Compound | pIC50
Cn1nc(-c2cc(C3CC3)nn2-c2ccc(NC(=O)c3c(F)cccc3F)cn2)oc1=O [Example 30, N-(6-(3-Cyclopropyl 5-(4-methyl-5-oxo-4,5-dihydro-1,3,4-oxadiazol-2-yl)-1H-pyrazol-1-yl)pyridin-3-yl)-2,6-difluorobenzamide] | 6.00 to 7.00
Cn1c(-c2cc(C(F)(F)F)n(-c3ccc(NCc4c(F)cccc4F)cn3)n2)noc1=O [Example 26, 3-(1-(5-((2,6-Difluorobenzyl)amino)pyridin-2-yl)-5-(trifluoromethyl)-1H-pyrazol-3-yl)-4-methyl-1,2,4-oxadiazol-5(4H)-one] | 6.00 to 7.00
Cn1nc(-c2cc(C(F)(F)F)n(-c3ccc(NC(=O)c4c(F)cccc4Cl)cn3)n2)oc1=O [Example 9, 2-Chloro-6-fluoro-N-(6-(3-(4-methyl-5-oxo-4,5-dihydro-1,3,4-oxadiazol-2-yl)-5-(trifluoromethyl)-1H-pyrazol-1-yl)pyridin-3-yl)benzamide] | > 7.00
COC(=O)C1(C)CC(c2cc(C(F)(F)F)n(-c3ccc(NCc4c(F)cccc4Cl)cn3)n2)=NO1 (stereo not shown) [Example 7, Methyl 3-(1-(5-((2-chloro-6-fluorobenzyl)amino)pyridin-2-yl)-5-(trifluoromethyl)-1H-pyrazol-3-yl)-5-methyl-4,5-dihydroisoxazole-5-carboxylate] | 6.00 to 7.00
CC1(C)ON=C(c2cc(C(F)(F)F)n(-c3ccc(NC(=O)c4c(F)cccc4F)cn3)n2)C1=O [Example 14, N-(6-(3-(5,5-Dimethyl-4-oxo-4,5-dihydroisoxazol-3-yl)-5-(trifluoromethyl)-1H-pyrazol-1-yl)pyridin-3-yl)-2,6-difluorobenzamide] | > 7.00
Cn1c(-c2cc(C(F)(F)F)n(-c3ccc(NC(=O)c4c(F)cccc4F)cn3)n2)noc1=O [Example 19, 2,6-Difluoro-N-(6-(3-(4-methyl-5-oxo-4,5-dihydro-1,2,4-oxadiazol-3-yl)-5-(trifluoromethyl)-1H-pyrazol-1-yl)pyridin-3-yl)benzamide] | 6.00 to 7.00
Cn1nc(-c2cc(C(F)(F)F)nn2-c2ccc(NC(=O)c3c(F)cccc3F)cn2)oc1=O [Example 1, 2,6-Difluoro-N-(6-(5-(4-methyl-5-oxo-4,5-dihydro-1,3,4-oxadiazol-2-yl)-3-(trifluoromethyl)-1H-pyrazol-1-yl)pyridin-3-yl)benzamide] | 6.00 to 7.00
CN1N=C(c2cc(C(F)(F)F)n(-c3ccc(NC(=O)c4c(F)cccc4Cl)cn3)n2)C(C)(C)C1=O [Example 17, 2-Chloro-6-fluoro-N-(6-(1′,4′,4′-trimethyl-5′-oxo-5-(trifluoromethyl)-4′,5′-dihydro-1H,1′H-[3,3′-bipyrazol]-1-yl)pyridin-3-yl)benzamide] | 6.00 to 7.00
Cc1cccc(F)c1C(=O)Nc1ccc(-n2nc(C3=NN(C)C(=O)C3(C)C)cc2C(F)(F)F)nc1 [Example 18, 2-Fluoro-6-methyl-N-(6-(1′,4′,4′-trimethyl-5′-oxo-5-(trifluoromethyl)-4′,5′-dihydro-1H,1′H-[3,3′-bipyrazol]-1-yl)pyridin-3-yl)benzamide] | > 7.00
Cn1nc(-c2cc(C(F)F)n(-c3ccc(NCc4c(F)cccc4F)cn3)n2)oc1=O [Example 12, 5-(1-(5-((2,6-Difluorobenzyl)amino)pyridin-2-yl)-5-(difluoromethyl)-1H-pyrazol-3-yl)-3-methyl-1,3,4-oxadiazol-2(3H)-one] | > 7.00
Cc1cc(-c2nn(C)c(=O)o2)nn1-c1ccc(NCc2c(F)cccc2F)cn1 [Example 32, 5-(1-(5-((2,6-Difluorobenzyl)amino)pyridin-2-yl)-5-methyl-1H-pyrazol-3-yl)-3-methyl-1,3,4-oxadiazol-2(3H)-one] | > 7.00
Cc1cccc(F)c1C(=O)Nc1ccc(-n2nc(C(F)(F)F)cc2-c2nn(C)c(=O)o2)nc1 [Example 2, 2-Fluoro-6-methyl-N-(6-(5-(4-methyl-5-oxo-4,5-dihydro-1,3,4-oxadiazol-2-yl)-3-(trifluoromethyl)-1H-pyrazol-1-yl)pyridin-3-yl)benzamide] | 6.00 to 7.00
Cn1nc(-c2cc(C3CC3)n(-c3ccc(NC(=O)c4c(F)cccc4F)cn3)n2)oc1=O [Example 29, N-(6-(5-Cyclopropyl-3-(4-methyl-5-oxo-4,5-dihydro-1,3,4-oxadiazol-2-yl)-1H-pyrazol-1-yl)pyridin-3-yl)-2,6-difluorobenzamide] | 6.00 to 7.00

More lines, now with the values ahead:

pIC50 | Compound
> 7.00 | Cn1nc(-c2cc(C(F)(F)F)n(-c3ccc(NC(=O)c4c(F)cccc4F)nc3)n2)oc1=O [Example 38, 2,6-Difluoro-N-(5-(3-(4-methyl-5-oxo-4,5-dihydro-1,3,4-oxadiazol-2-yl)-5-(trifluoromethyl)-1H-pyrazol-1-yl)pyridin-2-yl)benzamide]
> 7.00 | CC1(CO)CC(c2cc(C(F)(F)F)n(-c3ccc(NCc4c(F)cccc4F)cn3)n2)=NO1 (stereo not shown) [Example 33, (3-(1-(5-((2,6-Difluorobenzyl)amino)pyridin-2-yl)-5-(trifluoromethyl)-1H-pyrazol-3-yl)-5-methyl-4,5-dihydroisoxazol-5-yl)methanol]
> 7.00 | Cn1nc(-c2cc(C(F)(F)F)n(-c3ccc(NC(=O)c4cc(F)c(F)cc4F)nc3)n2)oc1=O [Example 43, 2,4,5-Trifluoro-N-(5-(3-(4-methyl-5-oxo-4,5-dihydro-1,3,4-oxadiazol-2-yl)-5-(trifluoromethyl)-1H-pyrazol-1-yl)pyridin-2-yl)benzamide]
> 7.00 | Cc1cccc(C(=O)Nc2ccc(-n3nc(-c4nn(C)c(=O)o4)cc3C(F)(F)F)cn2)c1C [Example 46, 2,3-Dimethyl-N-(5-(3-(4-methyl-5-oxo-4,5-dihydro-1,3,4-oxadiazol-2-yl)-5-(trifluoromethyl)-1H-pyrazol-1-yl)pyridin-2-yl)benzamide]
> 7.00 | Cn1nc(-c2cc(C(F)(F)F)n(-c3ccc(NC(=O)c4cccc(F)c4F)nc3)n2)oc1=O [Example 42, 2,3-Difluoro-N-(5-(3-(4-methyl-5-oxo-4,5-dihydro-1,3,4-oxadiazol-2-yl)-5-(trifluoromethyl)-1H-pyrazol-1-yl)pyridin-2-yl)benzamide]
> 7.00 | CC1(C(N)=O)CC(c2cc(C(F)(F)F)n(-c3ccc(NC(=O)c4c(F)cccc4F)cn3)n2)=NO1 (stereo not shown) [Example 37, 3-(1-(5-(2,6-Difluorobenzamido)pyridin-2-yl)-5-(trifluoromethyl)-1H-pyrazol-3-yl)-5-methyl-4,5-dihydroisoxazole-5-carboxamide]
> 7.00 | Cn1nc(-c2cc(C(F)(F)F)n(-c3ccc(C(=O)Nc4c(F)cccc4Cl)cn3)n2)oc1=O [Example 55, N-(2-Chloro-6-fluorophenyl)-6-(3-(4-methyl-5-oxo-4,5-dihydro-1,3,4-oxadiazol-2-yl)-5-(trifluoromethyl)-1H-pyrazol-1-yl)nicotinamide]
6.00 to 7.00 | CCc1ccc(C(=O)Nc2ccc(-n3nc(-c4nn(C)c(=O)o4)cc3C(F)(F)F)cn2)cc1 [Example 49, 4-Ethyl-N-(5-(3-(4-methyl-5-oxo-4,5-dihydro-1,3,4-oxadiazol-2-yl)-5-(trifluoromethyl)-1H-pyrazol-1-yl)pyridin-2-yl)benzamide]
6.00 to 7.00 | COC(=O)C1(C)CC(c2cc(C(F)(F)F)n(-c3ccc(NC(=O)c4c(F)cccc4F)cn3)n2)=NO1 (stereo not shown) [Example 35, Methyl 3-(1-(5-(2,6-difluorobenzamido)pyridin-2-yl)-5-(trifluoromethyl)-1H-pyrazol-3-yl)-5-methyl-4,5-dihydroisoxazole-5-carboxylate]
